Patent US20260198493A1, “HYDRAZIDE COMPOUND AND AGRICULTURAL/HORTICULTURAL FUNGICIDE” (Nippon Soda Co., Ltd., priority 2022, published 2026)

Columns and labels:
Fusarium graminearum = experiment: microbe, parasite or virus in culture; format: cell-based; details: 96 h, read-out: growth inhibition ratio
Glomerella cingulata = experiment: Fungicidal effect test against fungi causing grape ripe rot disease; details: Colletotrichum gloeosporioides, 72 h, read-out: growth inhibition ratio
Colletotrichum acutatum = experiment: Fungicidal effect test against fungi causing apple anthracnose; details: 96 h, read-out: growth inhibition ratio
Botrytis cinerea [1] = format: cell-based; details: 120 h, 25 ppm by volume, Vogel medium, 20° C., five days, dark, read-out: growth inhibition ratio
Botrytis cinerea [2] = experiment: Control test of cucumber gray mold (sprayed young cucumber seedlings); format: in vivo; details: 96 h, four days after inoculation; for pest or weed control at 25 ppm: 25 ppm by mass spray; for pest or weed control at 125 ppm: 125 ppm by mass spray
Procedure: Then, the drug liquid was sprayed onto young cucumber seedlings cultivated in a nursery pot (variety “Jihai”-based, cotyledon stage), and then air-dried. […] They were left still in a moist room at 20° C. Four days after inoculation, leaves of the young cucumber seedlings were visually observed, and the control value was calculated from the lesion area ratio in accordance with the following equation. [formula]

[3] = test system: Erysiphe graminis f.sp.tritici; experiment: Control test of wheat powdery mildew disease (sprayed young wheat seedlings); format: in vivo; details: Blumeria graminis, 144 h, 125 ppm by mass spray, six days after inoculation
Venturia inaequalis = experiment: Control test of apple scab disease (sprayed young apple seedlings); format: in vivo; details: 125 ppm by mass spray, 12 to 14 days after inoculation

COC(=O)N(Cc1ccc(C)cc1C)NC(=O)c1c(Oc2cccc(Cl)c2F)nnc2c1CCC2 [b-175]
≥ 75%: inhibition of growth at 25 ppm (Fusarium graminearum) | inhibition of growth at 25 ppm (Glomerella cingulata) | inhibition of growth at 25 ppm (Colletotrichum acutatum) | inhibition of growth at 25 ppm (Botrytis cinerea [1])

COC(=O)N(Cc1ccc(OC)cc1C)NC(=O)c1cc(C#N)ncc1Oc1cccc(C2CC2)c1F [b-167]
≥ 75%: inhibition of growth at 25 ppm (Fusarium graminearum) | inhibition of growth at 25 ppm (Glomerella cingulata) | inhibition of growth at 25 ppm (Colletotrichum acutatum) | inhibition of growth at 25 ppm (Botrytis cinerea [1])

COC(=O)N(Cc1ccc(C)cc1C)NC(=O)c1cc(C)ncc1Oc1cccc(C2CC2)c1 [b-32]
≥ 75%: inhibition of growth at 25 ppm (Fusarium graminearum) | inhibition of growth at 25 ppm (Glomerella cingulata) | pest or weed control at 25 ppm (Botrytis cinerea [2]) | inhibition of growth at 25 ppm (Colletotrichum acutatum) | inhibition of growth at 25 ppm (Botrytis cinerea [1])

COC(=O)N(Cc1ccc(C)cc1C)NC(=O)c1cc(SC)ncc1Oc1cccc(C2CC2)c1F [b-194]
≥ 75%: inhibition of growth at 25 ppm (Fusarium graminearum) | inhibition of growth at 25 ppm (Glomerella cingulata) | inhibition of growth at 25 ppm (Colletotrichum acutatum) | inhibition of growth at 25 ppm (Botrytis cinerea [1])

COC(=O)N(Cc1ccc(OC)cc1C)NC(=O)c1c(Cl)cncc1Oc1cccc(Cl)c1F [b-207]
≥ 75%: inhibition of growth at 25 ppm (Fusarium graminearum) | inhibition of growth at 25 ppm (Glomerella cingulata) | pest or weed control at 25 ppm (Botrytis cinerea [2]) | pest or weed control at 125 ppm (Botrytis cinerea [2]) | inhibition of growth at 25 ppm (Colletotrichum acutatum) | inhibition of growth at 25 ppm (Botrytis cinerea [1]) | pest or weed control at 125 ppm [3]

COC(=O)N(Cc1ccc(C)cc1C)NC(=O)c1cc(C)nnc1Oc1ccccc1 [b-143]
≥ 75%: inhibition of growth at 25 ppm (Fusarium graminearum) | inhibition of growth at 25 ppm (Glomerella cingulata) | inhibition of growth at 25 ppm (Colletotrichum acutatum) | inhibition of growth at 25 ppm (Botrytis cinerea [1])

Cc1ccc(CNNC(=O)c2cc(C)nnc2Oc2cccc(C3CC3)c2F)c(C)c1 [b-1]
≥ 75%: inhibition of growth at 25 ppm (Fusarium graminearum) | inhibition of growth at 25 ppm (Glomerella cingulata) | inhibition of growth at 25 ppm (Colletotrichum acutatum) | inhibition of growth at 25 ppm (Botrytis cinerea [1])

COC(=O)N(Cc1ccc(C)cc1C)NC(=O)c1c(Oc2cccc(C3CC3)c2F)cnc2c1OC(C)(C)CC2 [b-209, Methyl 2-(7-(3-cyclopropyl-2-fluorophenoxy)-2,2-dimethyl-3,4-dihydro-2H-pyrano[3,2-b]pyridine-8-carbonyl)-1-(2,4-dimethylbenzyl)hydrazine-1-carboxylate]
≥ 75%: inhibition of growth at 25 ppm (Fusarium graminearum) | inhibition of growth at 25 ppm (Glomerella cingulata) | pest or weed control at 25 ppm (Botrytis cinerea [2]) | pest or weed control at 125 ppm (Botrytis cinerea [2]) | inhibition of growth at 25 ppm (Colletotrichum acutatum) | inhibition of growth at 25 ppm (Botrytis cinerea [1])

COC(=O)N(Cc1ccc(C)cc1C)NC(=O)c1cc(C)nnc1Oc1cccc([N+](=O)[O-])c1 [b-135]
≥ 75%: inhibition of growth at 25 ppm (Fusarium graminearum) | inhibition of growth at 25 ppm (Glomerella cingulata) | pest or weed control at 25 ppm (Botrytis cinerea [2]) | inhibition of growth at 25 ppm (Colletotrichum acutatum) | inhibition of growth at 25 ppm (Botrytis cinerea [1])

COC(=O)N(Cc1ccc(N(C)C)cc1C)NC(=O)c1cc(C)ncc1Oc1cccc(C2CC2)c1F [b-126]
≥ 75%: inhibition of growth at 25 ppm (Fusarium graminearum) | inhibition of growth at 25 ppm (Glomerella cingulata) | pest or weed control at 125 ppm (Botrytis cinerea [2]) | inhibition of growth at 25 ppm (Colletotrichum acutatum) | inhibition of growth at 25 ppm (Botrytis cinerea [1])

COC(=O)N(Cc1ccc(C)cc1C)NC(=O)c1c(Oc2cccc(C3CC3)c2F)cnc2c1OC(C)(C)C=C2 [b-213, Methyl 2-(7-(3-cyclopropyl-2-fluorophenoxy)-2,2-dimethyl-2H-pyrano[3,2-b]pyridine-8-carbonyl)-1-(2,4-dimethylbenzyl)hydrazine-1-carboxylate]
≥ 75%: inhibition of growth at 25 ppm (Fusarium graminearum) | inhibition of growth at 25 ppm (Glomerella cingulata) | pest or weed control at 25 ppm (Botrytis cinerea [2]) | pest or weed control at 125 ppm (Botrytis cinerea [2]) | inhibition of growth at 25 ppm (Colletotrichum acutatum) | inhibition of growth at 25 ppm (Botrytis cinerea [1]) | pest or weed control at 125 ppm [3]

C=C(OCC)c1cncc(Oc2cccc(C3CC3)c2F)c1C(=O)NN(Cc1ccc(C)cc1C)C(=O)OC [b-217]
≥ 75%: inhibition of growth at 25 ppm (Fusarium graminearum) | inhibition of growth at 25 ppm (Glomerella cingulata) | inhibition of growth at 25 ppm (Colletotrichum acutatum) | inhibition of growth at 25 ppm (Botrytis cinerea [1])

COC(=O)N(Cc1ccc(C)cc1C)NC(=O)c1c(F)cncc1Oc1cccc(Cl)c1F [b-200]
≥ 75%: inhibition of growth at 25 ppm (Fusarium graminearum) | inhibition of growth at 25 ppm (Glomerella cingulata) | pest or weed control at 25 ppm (Botrytis cinerea [2]) | pest or weed control at 125 ppm (Botrytis cinerea [2]) | inhibition of growth at 25 ppm (Colletotrichum acutatum) | inhibition of growth at 25 ppm (Botrytis cinerea [1]) | pest or weed control at 125 ppm [3]

COC(=O)N(Cc1ccc(C)cc1C)NC(=O)c1cc(C)nnc1Oc1cccc(Cl)n1 [b-215]
≥ 75%: inhibition of growth at 25 ppm (Fusarium graminearum) | inhibition of growth at 25 ppm (Glomerella cingulata) | inhibition of growth at 25 ppm (Colletotrichum acutatum) | inhibition of growth at 25 ppm (Botrytis cinerea [1])

CO/N=C/c1cncc(Oc2cccc(C3CC3)c2F)c1C(=O)NN(Cc1ccc(C)cc1C)C(=O)OC [b-214]
≥ 75%: inhibition of growth at 25 ppm (Fusarium graminearum) | inhibition of growth at 25 ppm (Glomerella cingulata) | pest or weed control at 125 ppm (Botrytis cinerea [2]) | inhibition of growth at 25 ppm (Colletotrichum acutatum) | inhibition of growth at 25 ppm (Botrytis cinerea [1])

COC(=O)N(Cc1ccc(C)cc1C)NC(=O)c1cc(C2CC2)ncc1Oc1cccc(C2CC2)c1F [b-116]
≥ 75%: inhibition of growth at 25 ppm (Fusarium graminearum) | inhibition of growth at 25 ppm (Glomerella cingulata) | pest or weed control at 25 ppm (Botrytis cinerea [2]) | inhibition of growth at 25 ppm (Colletotrichum acutatum) | inhibition of growth at 25 ppm (Botrytis cinerea [1])

COC(=O)N(Cc1ccc(OC)cc1OC)NC(=O)c1cc(C)ncc1Oc1cccc(Br)c1 [b-87]
≥ 75%: inhibition of growth at 25 ppm (Fusarium graminearum) | inhibition of growth at 25 ppm (Glomerella cingulata) | inhibition of growth at 25 ppm (Colletotrichum acutatum) | inhibition of growth at 25 ppm (Botrytis cinerea [1])

COC(=O)N(Cc1ccc(C(F)(F)F)cc1C)NC(=O)c1cc(C)nnc1Oc1cccc(C2CC2)c1F [b-109]
≥ 75%: pest or weed control at 125 ppm (Venturia inaequalis) | inhibition of growth at 25 ppm (Glomerella cingulata) | pest or weed control at 25 ppm (Botrytis cinerea [2]) | pest or weed control at 125 ppm (Botrytis cinerea [2]) | inhibition of growth at 25 ppm (Colletotrichum acutatum) | inhibition of growth at 25 ppm (Botrytis cinerea [1]) | pest or weed control at 125 ppm [3]

COC(=O)N(Cc1ccc(C)cc1C)NC(=O)c1cc(C)nnc1Oc1cccc(I)c1 [b-114]
≥ 75%: pest or weed control at 125 ppm (Venturia inaequalis) | inhibition of growth at 25 ppm (Glomerella cingulata) | pest or weed control at 125 ppm (Botrytis cinerea [2]) | inhibition of growth at 25 ppm (Colletotrichum acutatum) | inhibition of growth at 25 ppm (Botrytis cinerea [1]) | pest or weed control at 125 ppm [3]

Cc1ccc(CN(NC(=O)c2cc(C)nnc2Oc2cccc(C3CC3)c2F)C(=O)OCc2ccccc2)c(C)c1 [b-182]
≥ 75%: pest or weed control at 125 ppm (Venturia inaequalis) | inhibition of growth at 25 ppm (Glomerella cingulata) | pest or weed control at 25 ppm (Botrytis cinerea [2]) | pest or weed control at 125 ppm (Botrytis cinerea [2]) | inhibition of growth at 25 ppm (Colletotrichum acutatum) | inhibition of growth at 25 ppm (Botrytis cinerea [1]) | pest or weed control at 125 ppm [3]

COC(=O)N(Cc1ccc(C)cc1C)NC(=O)c1ccnnc1Oc1cccc(Cl)c1F [b-190]
≥ 75%: pest or weed control at 125 ppm (Venturia inaequalis) | inhibition of growth at 25 ppm (Glomerella cingulata) | pest or weed control at 25 ppm (Botrytis cinerea [2]) | pest or weed control at 125 ppm (Botrytis cinerea [2]) | inhibition of growth at 25 ppm (Colletotrichum acutatum) | inhibition of growth at 25 ppm (Botrytis cinerea [1]) | pest or weed control at 125 ppm [3]

CCc1cc(C(=O)NN(Cc2ccc(C)cc2C)C(=O)OC)c(Oc2cccc(C3CC3)c2F)nn1 [b-27]
≥ 75%: inhibition of growth at 25 ppm (Fusarium graminearum) | inhibition of growth at 25 ppm (Glomerella cingulata) | pest or weed control at 25 ppm (Botrytis cinerea [2]) | pest or weed control at 125 ppm (Botrytis cinerea [2]) | inhibition of growth at 25 ppm (Colletotrichum acutatum) | inhibition of growth at 25 ppm (Botrytis cinerea [1])

COC(=O)N(Cc1ccc(C)cc1C)NC(=O)c1ccnnc1Oc1cccc(C2CC2)c1F [b-189]
≥ 75%: pest or weed control at 125 ppm (Venturia inaequalis) | inhibition of growth at 25 ppm (Glomerella cingulata) | pest or weed control at 25 ppm (Botrytis cinerea [2]) | pest or weed control at 125 ppm (Botrytis cinerea [2]) | inhibition of growth at 25 ppm (Colletotrichum acutatum) | inhibition of growth at 25 ppm (Botrytis cinerea [1]) | pest or weed control at 125 ppm [3]

Cc1cc(C(=O)NNCc2ccc(Cl)cc2Cl)c(Oc2cccc(C3CC3)c2F)nn1 [b-7]
≥ 75%: inhibition of growth at 25 ppm (Fusarium graminearum) | inhibition of growth at 25 ppm (Glomerella cingulata) | inhibition of growth at 25 ppm (Colletotrichum acutatum) | inhibition of growth at 25 ppm (Botrytis cinerea [1])

Cc1ccc(CNNC(=O)c2cc(C)ncc2Oc2cccc(C3CC3)c2F)c(C)c1 [b-8]
≥ 75%: inhibition of growth at 25 ppm (Fusarium graminearum) | inhibition of growth at 25 ppm (Glomerella cingulata) | inhibition of growth at 25 ppm (Colletotrichum acutatum) | inhibition of growth at 25 ppm (Botrytis cinerea [1])

COC(=O)N(Cc1ccc(C)cc1C)NC(=O)c1cc(C#N)ncc1Oc1cccc(C2CC2)c1F [b-119]
≥ 75%: inhibition of growth at 25 ppm (Fusarium graminearum) | inhibition of growth at 25 ppm (Glomerella cingulata) | pest or weed control at 25 ppm (Botrytis cinerea [2]) | inhibition of growth at 25 ppm (Colletotrichum acutatum) | inhibition of growth at 25 ppm (Botrytis cinerea [1])

COC(=O)N(Cc1ccccc1C)NC(=O)c1cc(C)nnc1Oc1cccc(C2CC2)c1F [b-103]
≥ 75%: pest or weed control at 125 ppm (Venturia inaequalis) | inhibition of growth at 25 ppm (Glomerella cingulata) | pest or weed control at 25 ppm (Botrytis cinerea [2]) | pest or weed control at 125 ppm (Botrytis cinerea [2]) | inhibition of growth at 25 ppm (Colletotrichum acutatum) | inhibition of growth at 25 ppm (Botrytis cinerea [1]) | pest or weed control at 125 ppm [3]

COC(=O)N(Cc1ccc(OC)cc1C)NC(=O)c1c(C)cnnc1Oc1cccc(C2CC2)c1F [b-192]
≥ 75%: pest or weed control at 125 ppm (Venturia inaequalis) | inhibition of growth at 25 ppm (Glomerella cingulata) | pest or weed control at 25 ppm (Botrytis cinerea [2]) | pest or weed control at 125 ppm (Botrytis cinerea [2]) | inhibition of growth at 25 ppm (Colletotrichum acutatum) | inhibition of growth at 25 ppm (Botrytis cinerea [1]) | pest or weed control at 125 ppm [3]

COC(=O)N(Cc1ccc(C#N)cc1C)NC(=O)c1cc(C)ncc1Oc1cccc(C2CC2)c1F [b-128]
≥ 75%: inhibition of growth at 25 ppm (Fusarium graminearum) | inhibition of growth at 25 ppm (Glomerella cingulata) | inhibition of growth at 25 ppm (Colletotrichum acutatum) | inhibition of growth at 25 ppm (Botrytis cinerea [1])

COC(=O)N(Cc1cccc(C)c1)NC(=O)c1cc(C)nnc1Oc1cccc(C2CC2)c1F [b-159]
≥ 75%: pest or weed control at 125 ppm (Venturia inaequalis) | inhibition of growth at 25 ppm (Glomerella cingulata) | pest or weed control at 25 ppm (Botrytis cinerea [2]) | pest or weed control at 125 ppm (Botrytis cinerea [2]) | inhibition of growth at 25 ppm (Colletotrichum acutatum) | inhibition of growth at 25 ppm (Botrytis cinerea [1]) | pest or weed control at 125 ppm [3]
